Consider two compounds from patent US20120052544A1, “E[…] CELLS WITH PSORALENS” (priority 2010, published 2012).

Structures are written as SMILES. Where “and” joins values, the source holds several entries; their conditions need not be identical. Equal values may be shown once.

For data set [1], the system named is Xenopus eggs. Nature of the data set: Enucleation of Xenopus eggs with psoralen and long-wave UV light, then fertilization. The format is cell-based. As to conditions: for Chromosome Number (Mean ± SD): embryos from eggs treated with psoralen + long-wave UV before fertilization, diploid control 36.
For data set [2], the system named is Mouse sperm. As to conditions: AMT+UV-treated sperm. How it is done:
(§1) Sperm Enucleation. A small piece of fresh Xenopus testis was macerated with forceps, resuspended in 1×MMR containing 1-50 μM AMT, then filtered through a […] cell strainer (Falcon). The sperm suspension was spread onto a Petri dish then irradiated as described above and used immediately to fertilize fresh eggs. Mouse epididymal sperm were isolated in HTF medium (Quinn, 2000) and not filtered before irradiation.
(§2) Eggs from super-ovulated mice were irradiated for 30 seconds with a handheld 4W UV lamp in the presence of 4-6 μM AMT, then parthenogenetically activated with strontium chloride and cultured in vitro for four days. […] In mouse embryos, however, checkpoints are active during the early cleavage divisions (Liu et al., 2000b; Takai et al., 2000).

Data set [3] relates to primary MEFs. How it is done: (§3) Feeder Cell Enucleation. […] Cells were irradiated from above for 30-60 seconds with a 4 W UVGL-25 Mineralite (UVP) using the long-wave setting, holding the lamp as close as possible to the brim of the culture dish with the lid removed. After irradiation cells were washed with PBS. H7/WA07 hESCs (National Stem Cell Bank) were plated on primary MEFs 24 hours later. These MEFs were between passages 2 and 5. For keratinocytes precursor cell culture, the MEFS were trypsinized immediately after treatment and plated with CIN612 cells.
Human embryonic stem cells (hESCs) require a feeder layer of mouse embryonic fibroblasts (MEFs) to grow in culture (Thomson et al., 1998). […] The ability of MEFs to support hESC growth declines with time (VIIIa-Diaz et al., 2009).

Data set [4] has as its system Mouse J2 3T3 fibroblasts. As to conditions: 5 μM AMT and UV light 2 minutes. How it is done:
as §3
The human keratinocyte precursor cell line CIN612 is widely used in studies of human papillomavirus (HPV) (Ozbun, 2002). CIN612 cells harbor episomal copies of HPV31b, a subtype that causes cervical cancer. The cells are typically grown on a feeder layer of mouse fibroblasts. Mouse J2 3T3 fibroblasts were treated with 5 μM AMT and UV light for 2 minutes, then trypsinized and plated with CIN612 cells.

Data set [5] has as its system Xenopus sperm. How it is done:
as §1
Karyotype Analysis. Karyotype analysis was performed using a modified protocol (http:// followed “by faculty.virginia.edu/xtropicalis/KaryotypeXtropicalis.htm”). […] tailbud embryos were incubated in 0.1×MMR containing 10 μM nocodazole for 1-3 hours. The tailbud was bluntly dissected off with sharp needles, incubated in 60% acetic acid for 5 minutes, and squashed onto a Superfrost Plus microscope slide (V WR Scientific) under a coverslip and a lead brick. After 5 minutes, the slide was quick-frozen on a cake of dry ice, the coverslip was prized off with a razor blade, and the squashed tissue was stained with 0.1 μg/ml 4′,6-diamidino-2-phenylindole (DAPI). At least three high quality spreads were counted before assigning a karyotype.

The test system of data set [6] is Mouse eggs. As to conditions: cultured four days. How it is done: as §2
Data set [7] deals with HeLa cells. As to the kind of experiment: Effect of psoralen+UV treatment on growth of HeLa cells.
Setting [8] is: pigmented male sperm treated with AMT and UV, eggs from albino female.
[9] abbreviates: 5 μM MOP, long wave UV 1 minute, cultured three days.

With `Cc1oc2c(C)c3oc(=O)cc(C)c3cc2c1CN` [AMT, 4′-aminomethyl-4, 5′, 8-trimethylpsoralen], in data set [1] (20 different clutches of eggs from different mothers), the “Average efficiency of enucleation” value was determined as 87±11%. Further, the “Embryo development, AMT-only treated eggs” value in data set [1] (AMT without UV) was “normal diploid embryos”. Moreover, the “DNA content of somatic cells versus cells from untreated eggs” value in data set [1] (AMT+UV-treated eggs, primary cultures from pools of 20 tadpoles, flow cytometry) is “exactly half”. The “Rates of fertilization and development into haploid tadpoles” value in data set [1] (after psoralen+UV treatment of eggs) is listed as 80-100%. In addition, the Appearance of tadpoles result in data set [1] (eggs in 50 μM AMT 5 min, irradiated 5 min, 100 W UV 300-400 nm, then fertilized) is on record as “typical haploid appearance”; in data set [5] (setting [8]) it was “typical haploid appearance”. Further, in data set [1] (eggs irradiated for shorter periods or with lower concentrations of AMT), the “Outcome with shorter irradiation or lower concentrations” value is on record as “abnormal embryos”. In addition, in data set [1] (eggs of CMV-GFP(+) female treated with AMT and UV, fertilized with GFP(−) sperm, untreated 63%), the “Haploid embryos expressing GFP” value is “virtually none”. The “Chromosome Number (Mean ± SD)” value was 18 and 18.0 ± 0.0 in data set [1] (karyotype analysis); 18 and 18.0 ± 0.0 in data set [5] (embryos from eggs fertilized with AMT + UV-treated sperm, karyotype analysis). Further, in data set [1] (irradiation of eggs for 2-5 minutes), the “Concentration providing ideal enucleation conditions” value was 25 to 50 µM. Besides, the “Chromosome number of most surviving abnormal embryos” value in data set [1] (shorter irradiation or lower AMT concentrations, karyotype analysis) is given as 32-34. In addition, in data set [2] (20-40% with untreated sperm reached blastocyst), the “Cleavage of fertilized zygotes” value is recorded as “rarely cleaved even once”. Also, the “Fertilization of mouse eggs in vitro by treated sperm” value in data set [2] (two pronuclei) is “successfully fertilized mouse eggs in vitro”. Further, the “Comparison of colonies with those on gamma-irradiated MEFs” value in data set [3] (5 μM AMT, long-wave UV 30 seconds) is given as “indistinguishable from those grown on gamma-irradiated MEFs”. For the same compound, the “Appearance of hESC colonies on treated MEFs” value in data set [3] (5 μM AMT, long-wave UV 30 seconds, H7/WA07 hESCs after 5 days) is “healthy-appearing hESC colonies with smooth rounded borders”. Also, the “Time after treatment within which plating maintains hESCs undifferentiated” value in data set [3] (AMT+UV-treated MEFs, noticeable decrease after 8 days) is at most 6 days. Moreover, in data set [3] (on AMT+UV-treated MEFs), the “Oct3/4 expression of hESCs” value is listed as “normal amounts”. Further, the “Growth rate of CIN612 cells on psoralen-treated feeders” value in data set [4] is given as “the same as on mitomycin-C treated feeders”. The “CIN612 colonies compared with mitomycin C-treated feeders” value in data set [4] (3-7 days in culture) is given as “indistinguishable from those grown on mitomycin C-treated feeder cells”. The “Embryo outcome when both sperm and egg were treated” value in data set [5] (both sperm and egg AMT+UV-treated) is reported as “underwent several irregular cleavage divisions before dying during the blastula stage”. Besides, the Pigmentation of tadpoles entry in data set [5] (setting [8]) is on record as “all were albino”. Moreover, the “Effect on efficiency of fertilization” value in data set [5] (sperm treated with AMT and UV light) is on record as “no effect”. The Efficiency of enucleation in data set [5] (sperm, AMT + UV) turned out to be 95±3%. Besides, the “Psoralen concentration sufficient to completely destroy the nucleus” value in data set [5] (sperm, with UV irradiation) was found to be 1 µM. In data set [5] (unless fertilization performed in a darkroom under a safelight), the “Embryo outcome, AMT without UV exposure” value is listed as “sometimes gave rise to abnormal embryos”. For the same compound, the “Development of parthenogenetically activated eggs” value in data set [6] (4-6 μM AMT, 30 seconds handheld 4W UV lamp) is given as “arrested development at the 1-2 cell stage”. Further, in data set [6] (AMT without UV), the “Development of eggs treated with AMT only” value is “formed complete blastocysts”.

Regarding `COc1c2occc2cc2ccc(=O)oc12` [MOP, 8-methoxypsoralen], the “Chromosome Number (Mean ± SD)” value in data set [1] (karyotype analysis) amounted to 18.0 ± 0.0. Also, in data set [7] (setting [9]), the Cell viability is given as 80-100% and the HeLa cell growth result is “effectively arrested HeLa cell growth”. Besides, in data set [7] (MOP without UV), the “Chk1 phosphorylation, MOP without UV exposure” value is “little or no Chk1 phosphorylation” and the “Growth of cells incubated in MOP without UV exposure” value is “grew normally”. Also, in data set [7] (MOP+UV-arrested cells, immunoblotting), the “S345-phosphorylated Chk1” value is “high levels”. For the same compound, the “Cell cycle distribution (flow cytometry)” value in data set [7] (MOP+UV-treated cells) was “arrested in S and G2/M phases of the cell cycle”. Moreover, the Proliferation in culture result in data set [7] (MOP+UV-treated, untreated doubling time close to 24 hours) is reported as “did not proliferate”.
